Patent US20150197492A1, “NOVEL INDENO[1,2-c]QUINOLIN-11-ONE DERIVATIVES, PREPARATION METHOD AND APPLICATION THEREOF” (National Defense Medical Center, priority 2014, published 2015)

Assays:
Experiment in all cases: cells
Format in all cases: cell-based
LOX IMVI = settings: Melanoma LOX IMV1
UACC-62 = test system: UACC-62
NCI-H322M = test system: NCI-H322M
MDA-MB-468 = test system: MDA-MB-468
HCC-2998 = test system: HCC-2998
PC-3 = test system: PC-3
MOLT-4 = test system: MOLT-4
SNB-19 = test system: SNB-19
MALME-3M = test system: MALME-3M
OVCAR-8 = test system: OVCAR-8
RPMI-8226 = test system: RPMI-8226
NCI-H522 = test system: NCI-H522
A549/ATCC = test system: A549/ATCC
MCF7 = test system: MCF7
CAKI-1 = test system: CAKI-1
SNB-75 = test system: SNB-75
HCT-15 = test system: HCT-15
TK-10 = TK-10 (Renal Cancer), 10 μM, 48 hours
SF-268 = test system: SF-268
OVCAR-5 = test system: OVCAR-5
MDA-MB-435 = test system: MDA-MB-435
ACHN = test system: ACHN
MDA-MB-231/ATCC = test system: MDA-MB-231/ATCC
OVCAR-3 = test system: OVCAR-3
UACC-257 = test system: UACC-257
M14 = test system: M14
OVCAR-4 = test system: OVCAR-4
UO-31 = test system: UO-31
SK-OV-3 = test system: SK-OV-3
[1] = Homo sapiens, CNS Cancer SNB-19
[2] = Homo sapiens, Melanoma MALME-3M
[3] = Homo sapiens, Non-Small Cell Lung Cancer A549/ATCC
[4] = Homo sapiens, CNS Cancer SF-268
[5] = Homo sapiens, Breast Cancer MDA-MB-231/ATCC

For `O=C1c2cc(Cl)ccc2-c2c(N3CCNCC3)nc3ccccc3c21` [SJ-10, 9-Chloro-6-(piperazin-1-yl)-11H-indeno[1,2-c]quinolin-11-one], the GI50 (LOX IMVI; Homo sapiens, LOX IMVI) was 4.74 µM, the CC50 (LOX IMVI; Homo sapiens, LOX IMVI, read-out: LC50 (the source's name)) was greater than 100 µM and the TGI (LOX IMVI) was greater than 100 µM. It also gave a GI50 (UACC-62; Homo sapiens, Melanoma UACC-62) of 4.38 µM, a CC50 (UACC-62; Homo sapiens, Melanoma UACC-62, read-out: LC50 (the source's name)) greater than 100 µM and a TGI (UACC-62; Melanoma UACC-62) greater than 100 µM. For the same compound, the growth percentage (UACC-62; UACC-62 (Melanoma), 10 μM, 48 hours) was -81.71%, the GI50 (NCI-H322M; Homo sapiens, Non-Small Cell Lung Cancer NCI-H322M) was 5.62 µM and the CC50 (NCI-H322M; Homo sapiens, Non-Small Cell Lung Cancer NCI-H322M, read-out: LC50 (the source's name)) was greater than 100 µM. The growth percentage (NCI-H322M; NCI-H322M (Non-Small Cell Lung Cancer), 10 μM, 48 hours) was 35.89%, the TGI (NCI-H322M; Non-Small Cell Lung Cancer NCI-H322M) was greater than 100 µM and the TGI (MDA-MB-468; Breast Cancer MDA-MB-468) was greater than 100 µM. The GI50 (MDA-MB-468; Homo sapiens, Breast Cancer MDA-MB-468) was 4.42 µM, the CC50 (MDA-MB-468; Homo sapiens, Breast Cancer MDA-MB-468, read-out: LC50 (the source's name)) was greater than 100 µM and the growth percentage (MDA-MB-468; MDA-MB-468 (Breast Cancer), 10 μM, 48 hours) was -35.66%. It also gave a TGI (HCC-2998; Colon Cancer HCC-2998) greater than 100 µM, a growth percentage (HCC-2998; HCC-2998 (Colon Cancer), 10 μM, 48 hours) of -55.83% and a GI50 (HCC-2998; Homo sapiens, Colon Cancer HCC-2998) of 30.9 µM. The CC50 (HCC-2998; Homo sapiens, Colon Cancer HCC-2998, read-out: LC50 (the source's name)) was greater than 100 µM, the GI50 (PC-3; Homo sapiens, Prostate Cancer PC-3) was 5.93 µM and the CC50 (PC-3; Homo sapiens, Prostate Cancer PC-3, read-out: LC50 (the source's name)) was greater than 100 µM. It also gave a growth percentage (PC-3; PC-3 (Prostate Cancer), 10 μM, 48 hours) of -58.51%, a TGI (PC-3; Prostate Cancer PC-3) greater than 100 µM and a GI50 (MOLT-4; Homo sapiens, Leukemia MOLT-4) of 4.41 µM. It also gave an LC50 (concentration killing 50% of cells) (MOLT-4; Homo sapiens, Leukemia MOLT-4) greater than 100 µM, a TGI (MOLT-4; Leukemia MOLT-4) greater than 100 µM and a growth percentage (MOLT-4; MOLT-4 (Leukemia), 10 μM, 48 hours) of -43.22%. The TGI (SNB-19; CNS Cancer SNB-19) was greater than 100 µM, the GI50 (SNB-19; [1]) was 8.27 µM and the LC50 (SNB-19; [1]) was greater than 100 µM. The growth percentage (SNB-19; SNB-19 (CNS Cancer), 10 μM, 48 hours) was 67.25%, the GI50 (MALME-3M; [2]) was 8.87 µM and the LC50 (concentration killing 50% of cells) (MALME-3M; [2]) was greater than 100 µM. It also gave a growth percentage (MALME-3M; MALME-3M (Melanoma), 10 μM, 48 hours) of -32.28%, a TGI (MALME-3M; Melanoma MALME-3M) greater than 100 µM and a GI50 (OVCAR-8; Homo sapiens, Ovarian Cancer OVCAR-8) of 8.66 µM. For the same compound, the CC50 (OVCAR-8; Homo sapiens, Ovarian Cancer OVCAR-8, read-out: LC50 (the source's name)) was greater than 100 µM, the growth percentage (OVCAR-8; OVCAR-8 (Ovarian Cancer), 10 μM, 48 hours) was -46.09% and the TGI (OVCAR-8; Ovarian Cancer OVCAR-8) was greater than 100 µM. For the same compound, the GI50 (RPMI-8226; Homo sapiens, Leukemia RPMI-8226) was 7.48 µM, the CC50 (RPMI-8226; Homo sapiens, Leukemia RPMI-8226, read-out: LC50 (the source's name)) was greater than 100 µM and the TGI (RPMI-8226; Leukemia RPMI-8226) was greater than 100 µM. It also gave a growth percentage (RPMI-8226; RPMI-8226 (Leukemia), 10 μM, 48 hours) of -43.57%, a GI50 (NCI-H522; Homo sapiens, Non-Small Cell Lung Cancer NCI-H522) of 3.98 µM and a CC50 (NCI-H522; Homo sapiens, Non-Small Cell Lung Cancer NCI-H522, read-out: LC50 (the source's name)) greater than 100 µM. It also gave a growth percentage (NCI-H522; NCI-H522 (Non-Small Cell Lung Cancer), 10 μM, 48 hours) of 18.08%, a TGI (NCI-H522; Non-Small Cell Lung Cancer NCI-H522) greater than 100 µM and a growth percentage (A549/ATCC; A549/ATCC (Non-Small Cell Lung Cancer), 10 μM, 48 hours) of 18.70%. For the same compound, the GI50 (A549/ATCC; [3]) was 4.87 µM, the LC50 (50% lethal concentration) (A549/ATCC; [3]) was greater than 100 µM and the TGI (A549/ATCC; Non-Small Cell Lung Cancer A549/ATCC) was greater than 100 µM. It also gave a TGI (MCF7; Breast Cancer MCF7) greater than 100 µM, a GI50 (MCF7; Homo sapiens, Breast Cancer MCF7) of 5.42 µM and a CC50 (MCF7; Homo sapiens, Breast Cancer MCF7, read-out: LC50 (the source's name)) greater than 100 µM. It also gave a growth percentage (MCF7; MCF7 (Breast Cancer), 10 μM, 48 hours) of -100.00%, a growth percentage (CAKI-1; CAKI-1 (Renal Cancer), 10 μM, 48 hours) of 17.84% and a GI50 (CAKI-1; Homo sapiens, Renal Cancer CAKI-1) of 2.52 µM. For the same compound, the CC50 (CAKI-1; Homo sapiens, Renal Cancer CAKI-1, read-out: LC50 (the source's name)) was greater than 100 µM, the TGI (CAKI-1; Renal Cancer CAKI-1) was greater than 100 µM and the TGI (SNB-75; CNS Cancer SNB-75) was greater than 100 µM. For the same compound, the GI50 (SNB-75; Homo sapiens, CNS Cancer SNB-75) was 4.53 µM, the CC50 (SNB-75; Homo sapiens, CNS Cancer SNB-75, read-out: LC50 (the source's name)) was greater than 100 µM and the growth percentage (SNB-75; SNB-75 (CNS Cancer), 10 μM, 48 hours) was 22.34%. It also gave a TGI (HCT-15; Colon Cancer HCT-15) greater than 100 µM, a growth percentage (HCT-15; HCT-15 (Colon Cancer), 10 μM, 48 hours) of -78.92% and a GI50 (HCT-15; Homo sapiens, Colon Cancer HCT-15) of 4.34 µM. The CC50 (HCT-15; Homo sapiens, Colon Cancer HCT-15, read-out: LC50 (the source's name)) was greater than 100 µM, the growth percentage (TK-10) was 47.07% and the TGI (SF-268; CNS Cancer SF-268) was greater than 100 µM. For the same compound, the GI50 (SF-268; [4]) was 8.71 µM, the LC50 (SF-268; [4]) was greater than 100 µM and the growth percentage (SF-268; SF-268 (CNS Cancer), 10 μM, 48 hours) was 34.33%. For the same compound, the GI50 (OVCAR-5; Homo sapiens, Ovarian Cancer OVCAR-5) was 34.5 µM, the CC50 (OVCAR-5; Homo sapiens, Ovarian Cancer OVCAR-5, read-out: LC50 (the source's name)) was greater than 100 µM and the growth percentage (OVCAR-5; OVCAR-5 (Ovarian Cancer), 10 μM, 48 hours) was 39.14%. The TGI (OVCAR-5; Ovarian Cancer OVCAR-5) was greater than 100 µM, the GI50 (MDA-MB-435; Homo sapiens, Melanoma MDA-MB-435) was 7.01 µM and the CC50 (MDA-MB-435; Homo sapiens, Melanoma MDA-MB-435, read-out: LC50 (the source's name)) was greater than 100 µM. For the same compound, the growth percentage (MDA-MB-435; MDA-MB-435 (Melanoma), 10 μM, 48 hours) was -6.57%, the TGI (MDA-MB-435; Melanoma MDA-MB-435) was greater than 100 µM and the growth percentage (ACHN; ACHN (Renal Cancer), 10 μM, 48 hours) was -83.29%. It also gave a GI50 (ACHN; Homo sapiens, Renal Cancer ACHN) of 3.14 µM, a CC50 (ACHN; Homo sapiens, Renal Cancer ACHN, read-out: LC50 (the source's name)) greater than 100 µM and a TGI (ACHN; Renal Cancer ACHN) greater than 100 µM. For the same compound, the TGI (MDA-MB-231/ATCC; Breast Cancer MDA-MB-231/ATCC) was greater than 100 µM, the GI50 (MDA-MB-231/ATCC; [5]) was 7.23 µM and the LC50 (concentration giving 50% net cell kill) (MDA-MB-231/ATCC; [5]) was greater than 100 µM. It also gave a growth percentage (MDA-MB-231/ATCC; MDA-MB-231/ATCC (Breast Cancer), 10 μM, 48 hours) of -10.45%, a GI50 (OVCAR-3; Homo sapiens, Ovarian Cancer OVCAR-3) of 12.8 µM and a CC50 (OVCAR-3; Homo sapiens, Ovarian Cancer OVCAR-3, read-out: LC50 (the source's name)) greater than 100 µM. The growth percentage (OVCAR-3; OVCAR-3 (Ovarian Cancer), 10 μM, 48 hours) was 22.86%, the TGI (OVCAR-3; Ovarian Cancer OVCAR-3) was greater than 100 µM and the GI50 (UACC-257; Homo sapiens, Melanoma UACC-257) was 35.1 µM. The CC50 (UACC-257; Homo sapiens, Melanoma UACC-257, read-out: LC50 (the source's name)) was greater than 100 µM, the TGI (UACC-257; Melanoma UACC-257) was greater than 100 µM and the growth percentage (UACC-257; UACC-257 (Melanoma), 10 μM, 48 hours) was -39.24%. For the same compound, the GI50 (M14; Homo sapiens, Melanoma M14) was 7.49 µM, the CC50 (M14; Homo sapiens, Melanoma M14, read-out: LC50 (the source's name)) was greater than 100 µM and the growth percentage (M14; M14 (Melanoma), 10 μM, 48 hours) was -56.24%. The TGI (M14; Melanoma M14) was greater than 100 µM, the GI50 (OVCAR-4; Homo sapiens, Ovarian Cancer OVCAR-4) was 6.39 µM and the CC50 (OVCAR-4; Homo sapiens, Ovarian Cancer OVCAR-4, read-out: LC50 (the source's name)) was greater than 100 µM. For the same compound, the growth percentage (OVCAR-4; OVCAR-4 (Ovarian Cancer), 10 μM, 48 hours) was 35.59%, the TGI (OVCAR-4; Ovarian Cancer OVCAR-4) was greater than 100 µM and the GI50 (UO-31; Homo sapiens, Renal Cancer UO-31) was 2.83 µM. It also gave a CC50 (UO-31; Homo sapiens, Renal Cancer UO-31, read-out: LC50 (the source's name)) greater than 100 µM, a TGI (UO-31; Renal Cancer UO-31) greater than 100 µM and a growth percentage (UO-31; UO-31 (Renal Cancer), 10 μM, 48 hours) of -40.61%. For the same compound, the GI50 (SK-OV-3; Homo sapiens, Ovarian Cancer SK-OV-3) was 4.35 µM, the CC50 (SK-OV-3; Homo sapiens, Ovarian Cancer SK-OV-3, read-out: LC50 (the source's name)) was greater than 100 µM and the TGI (SK-OV-3; Ovarian Cancer SK-OV-3) was greater than 100 µM. The growth percentage (SK-OV-3; SK-OV-3 (Ovarian Cancer), 10 μM, 48 hours) was 57.81%.
